Data on eleven molecules can be found in US4243678A, “Acylhydrocarbylaminoalkanoic acids, compositions and uses” (Byk Gulden Lomberg Chemische Fabrik GmbH, priority 1977, dated 1981).

Where two headings read alike, the source gives them in different places.

The test system of one series is pancreatic secretion. The experiment in a line: Influence on pancreatic secretion of the narcotized rat. Type of series: in vivo, rat (male Sprague-Dawley). The settings on record: 0.5 h.
Assay in series [1]: as above
The settings on record: in vivo, LD50 mouse i.p. / ED50 rat i.d. Type of series: in vivo, rat (male Sprague-Dawley).

Series [2] can be described thus: Determination of toxicity (lethal action on the mouse after intraperitoneal application). Type of series: in vivo. The settings on record: in vivo, ip. On the procedure:
The toxicity investigations are carried out on female NMRI mice (body weight 22 to 26 g). The animals (5 animals per dose) are given food and water ad lib. Different doses of the substances are administered intraperitoneally. The duration of observation is 14 days. The LD50, i.e. the dose at which 50% of the animals die, is determined graphically from the dose/effect curve.

The test system of the next series is bile secretion. Nature of the series: Influence on bile secretion (choleresis) of the narcotized rat. Type of series: in vivo, rat (male Sprague-Dawley). The settings on record: 0.5 h, liquid volume. An excerpt: (§1) Male Sprague-Dawley rats (body weight from 250 to 300 g) are narcotized with 1.2 g/kg urethane i.m. Then the abdominal cavity is opened medially, the bile duct is ligatured shortly above the place where it leads into the duodenum and also near to the hepatic duct, and both sections are catheterized towards the liver.
(§2) As in the rat all the pancreatic ducts lead out into the central section of the bile duct; it is possible in this way to discharge the pancreatic secretion separately from the distal (ligatured) section and the bile separately from the proximal section of the bile duct.
(§3) The quantities of pancreatic juice and bile juice obtained are measured at intervals of 30 minutes over a period from 2 hours before to 3 hours after the intraduodenal (V. jugularis externa) administration of the compounds to be tested (quantity of liquid administered 5 ml/kg).
(§4) The body temperature of the animals is maintained at 36° to 38° C. by means of electric blankets and radiation; the temperature is monitored rectally.
(§5) The liquid volumes of the 30-minute fractions after the administration of the substance are related in each case to the quantity of bile or pancreatic juice secreted prior to the application of the substance (=100%, mean of the last two measurements). The maximum percentage increase in the pancreatic or bile secretion is represented in dependence upon dose, and from this the ED50 is determined by interpolation.

Assay in series [3]: as above
Type of series: in vivo, rat (male Sprague-Dawley). The settings on record: in vivo, LD50 mouse i.p. / ED50 rat i.d.
Source text: as §1, §2, §3, §4, §5

The next series relates to liver damage by CCl4. Nature of the series: Antihepatotoxic effect: duration of hexobarbital sleep of the rat after liver damage by CCl4. The settings on record: Rattus norvegicus, po; for ED25: read-out: ED25 antihepatotoxic effect (shortens hexobarbital narcosis by 25%). On the procedure: (§6) The compounds to be tested are administered 1 hour prior to the administration of CCl4 orally in a liquid volume of 10 ml/kg.
(§7) The antihepatotoxic effect of the compounds to be tested (sodium salts in aqueous solution) is determined by the reduction of the prolongation of sleeping period caused by the CCl4 liver cell damage in the groups treated, as compared with the prolongation of the sleeping period of the CCl4 control group (=100%). […]

Assay in series [4]: as above
The settings on record: rat, in vivo. On the procedure: as §6, §7

A further series has as its system stomach ulcer. The experiment in a line: Antiulcerogenic (stomach-protective) action, pylorus ligature and acetylsalicylic acid. Type of series: in vivo, rat (female). The settings on record: 4 h; rat, intraduodenally; Table IV; read-out: ED50 antiulcerogenic action (dose which reduces the mean ulcer index by 50%). On the procedure:
(§8) The ulcer provocation is carried out on rats which have been made to fast for 24 hours (female, 180 to 200 g) by ligature of the pylorus (under ether narcosis) and the oral application of 100 mg/10 ml/kg acetylsalicylic acid. The administration of the substances was carried out intraduodenally (2.5 ml/kg) immediately after the ligature of the pylorus. The closure of the wound was carried out by means of Michel clamps. 4 hours after this, the animals were autopsied (while inebriated with ether) by dislocation of the atlas, and the stomach was resected. The stomach, opened longitudinally, is fixed on a cork board and, using a stereomicroscope with an enlargement of 10×, the number and size (=diameter) of any ulcers present were determined. The product of the degree of severity (according to the following scale of points) and the number of ulcers was used as the individual ulcer index.
(§9) As a measure of antiulcerogenic effect the reduction in the mean ulcer index of each treated group, as compared with that of the control group (=100%), was used.

Assay in series [5]: as above
Format: in vivo, rat (female). The settings on record: in vivo; LD50 mouse i.p. / ED50 rat i.d.; Table IV; read-out: TQ (LD50/ED50), antiulcerogenic action. On the procedure: as §8, §9

Setting [6] is: Rattus norvegicus, read-out: ED50 pancreatic secretion (dose which brings about an increase in the pancreatic secretion by a maximum of 50%).
Setting [7] is: Table I, read-out: TQ (LD50/ED50), pancreatic secretion.
The mark [8] stands for this setting: narcotized rat, i.d., 30 min fraction, Table II, read-out: ED50 bile secretion (dose which brings about an increase in the bile secretion by a maximum of 50%).
Setting [9] is: Table II, read-out: TQ (LD50/ED50), bile secretion.
Setting [10] is: read-out: ED50 antihepatotoxic effect (dose which shortens the hexobarbital narcosis by 50%).
Where [11] appears, read: TQ (LD50/ED50), antihepatotoxic effect, LD50 mouse i.p. / ED50 rat p.o., Table III.
Setting [12] is: narcotized rat, i.d., liquid volume, 30 min fraction, Table VII, read-out: ED50 pancreatic secretion (dose which brings about an increase in pancreatic secretion of a maximum of 50%).
[13] abbreviates: Table VII, read-out: TQ [LD50/ED50], pancreatic secretion.
[14] abbreviates: narcotized rat i.d., 30 min fraction, Table VI, read-out: ED50 bile secretion (dose which brings about an increase in the bile secretion by a maximum of 50%).
Setting [15] is: Table VI, read-out: TQ (LD50/ED50), bile secretion.
[16] abbreviates: read-out: ED50 antihepatotoxic effect (shortens hexobarbital narcosis by 50%).
Setting [17] is: TQ LD50/ED25, antihepatotoxic effect, LD50 mouse i.p. / ED25 rat p.o., Table V.
[18] abbreviates: TQ LD50/ED50, antihepatotoxic effect, LD50 mouse i.p. / ED50 rat p.o., Table V.

As to `CC(c1ccccc1)N(CCCC(=O)O)C(=O)c1ccc(Cl)cc1` (racemic) [Serial No. 10, N-(p-chloro)benzoyl-4-(1-phenylethylamino)butyric acid], the 50% effective dose (ED50) in the series with pancreatic secretion (setting [6]) was roughly 20 mg/kg; in the series on bile secretion (setting [8]) it was roughly 15 mg/kg; with liver damage by CCl4 (setting [10]), roughly 10 mg/kg. Besides, the selectivity ratio in [1] (setting [7]) is roughly 60; in series [3] (setting [9]), roughly 80; in series [4] (setting [11]), roughly 120. This molecule also registered an LD50 at 336 h in [2] (mouse, Table I) of 1200 mg/kg.

Take `C#CC1(N(CCCC(=O)O)C(=O)c2ccc(Cl)cc2)CCCCC1` [Serial No. 5, N-(p-chloro)benzoyl-4-[(1-ethynylcyclohexyl-1)-amino]butyric acid]: the ED50 in the series with pancreatic secretion (setting [6]) stood at 2 mg/kg; with bile secretion (setting [8]), 6 mg/kg. Moreover, the results for the selectivity ratio in series [1] (setting [7]) and in series [3] (setting [9]) were 95 and 32, respectively. The molecule also had an LD50 at 336 h in series [2] (mouse, Table I) of 190 mg/kg.

Consider `COc1ccc(CCN(CCCC(=O)O)C(=O)c2ccc(Cl)cc2)cc1OC` [Serial No. 9, N-(p-chloro)benzoyl-4-homoveratrylaminobutyric acid], for which the ED50 with pancreatic secretion (setting [6]) stood at 5 mg/kg; in the series with bile secretion (setting [8]), 18 mg/kg; in the series on liver damage by CCl4 (setting [10]), 100 mg/kg. Further, the selectivity ratio in series [1] (setting [7]) is 156; in [3] (setting [9]), 43; in [4] (setting [11]), 7.8. In addition, the LD50 at 336 h in series [2] (mouse, Table I) was found to be 780 mg/kg.

`CCC(C)(C)N(CCCC(=O)O)C(=O)c1ccc(Cl)cc1Cl` [Serial No. 11, N-(2,4-dichloro)benzoyl-4-[(1,1-dimethylpropyl)amino]butyric acid] gave an LD50 at 336 h in series [2] (mouse, Table II) of 190 mg/kg. Further, in the series on bile secretion (setting [8]), the median effective dose (ED50) came to 6 mg/kg. The selectivity ratio in series [3] (setting [9]) is 32.

As for `CC(=O)N(CCCC(=O)O)C(c1ccccc1)c1ccccc1` [Serial No. 14, N-acetyl-4-benzhydrylaminobutyric acid], the 50% effective dose (ED50) is roughly 5 mg/kg in the series with pancreatic secretion (setting [6]), 5 mg/kg in the series on bile secretion (setting [8]) and 10 mg/kg in the series on liver damage by CCl4 (setting [10]). Besides, the results for the selectivity ratio in series [1] (setting [7]), in [3] (setting [9]) and in series [4] (setting [11]) were roughly 220, 220 and 110, respectively. In [2] (mouse, Table I), this molecule came in with a median lethal dose (LD50) at 336 h of 1100 mg/kg.

Regarding `CC(C)(C)CC(C)(C)N(CCCC(=O)O)C(=O)c1ccc(F)cc1` [Serial No. 16, N-(p-fluoro)benzoyl-4-(1,1,3,3-tetramethylbutyl)aminobutyric acid], the ED50 was roughly 10 mg/kg in the series on pancreatic secretion (setting [6]) and 7 mg/kg in the series with bile secretion (setting [8]). Besides, the selectivity ratio in series [1] (setting [7]) is roughly 40; in [3] (setting [9]) it was 57. Moreover, the LD50 at 336 h in series [2] (mouse, Table I) is 400 mg/kg.

As to `O=C(O)CCCN(C(=O)c1ccc(Cl)cc1)C(Cc1ccccc1)c1ccccc1` (stereo not shown) [Serial No. 17, N-(p-chloro)benzoyl-4-[(1,2-diphenylethyl)amino]butyric acid], the ED50 in the series on pancreatic secretion (setting [6]) is roughly 1 mg/kg; in the series with bile secretion (setting [8]) it was 5 mg/kg; in the series with liver damage by CCl4 (setting [10]), 10 mg/kg. Moreover, the figures for the selectivity ratio in series [1] (setting [7]), in series [3] (setting [9]) and in series [4] (setting [11]) were roughly 160, 32 and 16, respectively. The molecule also displayed an LD50 at 336 h in [2] (mouse, Table I) of 160 mg/kg.

On to `CC(=O)N(CCCC(=O)O)c1ccccc1-c1ccccc1` [Serial No. 22, 4-[N-(biphenyl-2-yl)acetamido]butyric acid], for which the median effective dose (ED50) in the series with pancreatic secretion (setting [12]) was roughly 2 mg/kg; with bile secretion (setting [14]), 8 mg/kg; with stomach ulcer, 55 mg/kg; in the series on liver damage by CCl4 (setting [16]) it was 15 mg/kg. Moreover, the selectivity ratio in series [1] (setting [13]) was roughly 375; in series [3] (setting [15]) it was 93.8; in [5], 13.6; in series [4] (setting [17]) it was greater than 250; in series [4] (setting [18]), 50. This molecule showed a median lethal dose (LD50) at 336 h in [2] (mouse, Table IV) of 750 mg/kg. In addition, the ED25 in the series with liver damage by CCl4 was less than 3 mg/kg.

For the molecule `CC=CC(=O)N(CCCC(=O)O)c1ccccc1-c1ccccc1` [Serial No. 27, 4-[N-(biphenyl-2-yl)crotonoylamido]butyric acid], the median lethal dose (LD50) at 336 h in series [2] (mouse, Table IV) turned out to be 300 mg/kg. Moreover, the ED50 is 10 mg/kg in the series on bile secretion (setting [14]), roughly 55 mg/kg with stomach ulcer and 2.8 mg/kg in the series on liver damage by CCl4 (setting [16]). The selectivity ratio is 30 in [3] (setting [15]), roughly 5.5 in [5], 188 in series [4] (setting [17]) and 107 in series [4] (setting [18]). The ED25 in the series on liver damage by CCl4 stood at 1.6 mg/kg.

As for `COc1ccc(Cl)cc1C(=O)N(CCCC(=O)O)c1ccc(OC)c(-c2ccccc2)c1` [Serial No. 36, 4-[2-methoxy-5-chloro-N-(6-methoxybiphenyl-3-yl)benzamido]butyric acid], the ED50 in the series on pancreatic secretion (setting [12]) came to 5 mg/kg; in the series with bile secretion (setting [14]), 1 mg/kg. For the same molecule, the selectivity ratio was found to be 38 in series [1] (setting [13]) and 190 in [3] (setting [15]). Also, the 50% lethal dose (LD50) at 336 h in series [2] (mouse i.p., Table VI) was 190 mg/kg.

`COc1cc(C(=O)N(CCCC(=O)O)c2cccc3ccccc23)cc(OC)c1OC` [Serial No. 40, 4-{3,4,5-trimethoxy-[N-(α-naphthyl)]benzamido}butyric acid] had a 50% lethal dose (LD50) at 336 h in series [2] (mouse i.p., Table XI) of 360 mg/kg. Besides, the ED50 in the series on bile secretion (narcotized rat i.d., 30 minute fraction, Table XII, read-out: ED50 bile secretion (dose which brings about an increase in bile secretion by a maximum of 50%)) is 8 mg/kg; with liver damage by CCl4 (setting [16]), no less than 30 mg/kg. The selectivity ratio is 45 in series [3] (Table XII, read-out: TQ LD50/ED50, bile secretion); 21.2 in series [4] (TQ LD50/ED25, antihepatotoxic effect, LD50 mouse i.p. / ED25 rat p.o., Table XI); no more than 12 in series [4] (TQ LD50/ED50, antihepatotoxic effect, LD50 mouse i.p. / ED50 rat p.o., Table XI). In the series on liver damage by CCl4, the ED25 worked out at 17 mg/kg.

For orientation: ED50 means the midpoint of the dose-response relation. What is called LD50 is the dose at which mortality reaches 50%. Low values mean a more toxic substance, high ones a less toxic substance.
